Results: publication PMC3433414, “Oral Administration of the Pimelic Diphenylamide HDAC Inhibitor HDACi 4b Is Unsuitable for Chronic Inhibition of HDAC Activity in the CNS In Vivo” (PLoS ONE, 2012)
“Also recorded” adds a separate entry of the source. Values belong to the compound of their own block, whether it stands above or below them.

Tests used:
[1] = Chemical stability in formulation or solution; format: physicochemical
Protocol: Thomas and colleagues reported that a solution of 4b at 1 mg/mL was previously obtained using this procedure. […] We therefore prepared both TFA and hydrochloride (HCl) salts of 4b to establish whether they could offer improved solubility. Neither salt form of 4b was particularly soluble in water (<1 mg/ml). […] A study of the stability of the TFA salt also raised another more worrying issue in the use of 2-hydroxypropyl-β-cyclodextrin–complexed 4b salts for potential in vivo studies. […] The 4b. […] The lower than expected initial quantification of 4b was most likely due to the TFA salt rapidly degrading upon heating. Indeed, we always found the presence of the cyclised benzimidazole conversion product, named throughout as product C1, in the salt formulations even at t = 0 after preparation. Furthermore, the suspension was not stable upon standing in the dark with gentle shaking at room temperature, with a further 28% decrease observed in parent (4b) concentration on day 7 analysis, compared to day 1.
According to Thomas et al, verification of an acute pharmacodynamic response (the reversal of transcriptional dysregulation in the R6/2 model) was achieved by the repeated once daily injection of 150 mg/kg 4b in 50∶50 DMSO: PBS for three consecutive days. […] The lack of any pharmacodynamic response predictive of central Class I HDAC inhibition when 4b was dosed orally at 150 mg/kg twice daily for 5 days confirmed this prediction.

[2] = Solubility in water, formulations and DMSO; format: physicochemical
Protocol: Thomas and colleagues reported that a solution of 4b at 1 mg/mL was previously obtained using this procedure. […] We therefore prepared both TFA and hydrochloride (HCl) salts of 4b to establish whether they could offer improved solubility. Neither salt form of 4b was particularly soluble in water (<1 mg/ml). […] A study of the stability of the TFA salt also raised another more worrying issue in the use of 2-hydroxypropyl-β-cyclodextrin–complexed 4b salts for potential in vivo studies. […] The 4b. TFA cyclodextrin suspension targeted at 1 mg/ml with heating gave an initial (day 1) measured value of 0.75 mg/ml total 4b, with only 0.27 mg/mL solubilised as quantified in the sample after filtration. The lower than expected initial quantification of 4b was most likely due to the TFA salt rapidly degrading upon heating. Indeed, we always found the presence of the cyclised benzimidazole conversion product, named throughout as product C1, in the salt formulations even at t = 0 after preparation. Furthermore, the suspension was not stable upon standing in the dark with gentle shaking at room temperature, with a further 28% decrease observed in parent (4b) concentration on day 7 analysis, compared to day 1.
As a consequence de novo formulation attempts were made with the stable free base form. After several trials with different excipients, we were able to reach a soluble formulation preparation of 1 mg/ml 4b in 2% N-methyl-2-pyrollidone, 18% polyethylene glycol 400, 10% solutol HS-15 and 70% (1% Lutrol F68 in water), a vehicle which we have previously used without any adverse effects in R6/2 model chronic efficacy trials, but is unlikely to be palatable to mice in drinking water. With this concentration, a single oral gavage dose will result in a maximum of 10 mg/kg dose level (assuming a maximum dose volume of […]), considerably lower than that estimated to have been used by Thomas et al (150 mg/kg day in drinking water). In an attempt to replicate the original dose level as close as possible, it became necessary to formulate the test compound in suspension. We achieved a stable homogeneous suspension of free base 4b up to 100 mg/ml in 0.5% carboxymethylcellulose (medium viscosity) in reverse osmosis deionized (RODI) water. This suspension was used to evaluate the oral pharmacokinetics of 4b in mice. […]

[3] = Solubility in water, formulations and DMSO; format: physicochemical; settings: cyclodextrin formulation prepared without heating
[4] = tested on: endogenous Class I HDACs/HDAC6; test: Cellular HDAC assay, Boc_Lys_Ac substrate, Jurkat E6.1 cells; format: cell-based; settings: up to 50 µM; 5 h incubation
Protocol: Briefly, Jurkat E6.1 cells (obtained from the European Collection of Cell Cultures (ECACC)) were plated into 384 well plates at 75,000 cells/well in cellular assay buffer (RPMI without phenol red, 0.1% Fetal Bovine Serum, 10 mM HEPES, 1 mM Sodium Pyruvate). […] Fluorescent counts were read the following morning on the Perkin Elmer EnVision.
Each compound was tested in duplicate in concentration-response format on 3 separate days. […] A full dose response of reference compound was always included alongside the profiling, to ensure that assay parameters remained within acceptable limits.

[5] = Hepatic microsomal stability; format: in vitro ADME, mouse; settings: mouse hepatic microsomes; parent 4b
Protocol: Incubations of test compounds (1 µM initial concentration, n = 2) were carried out with pooled hepatic microsomes (0.25 mg protein/mL in 0.1 M phosphate buffer pH 7.4). NADPH (1 mM) was added to initiate the reactions. The incubations were performed at 37°C. Samples (100 µL) were taken from the incubation at 0, 5, 10, 20 and 40 min and added to 100 µL of acetonitrile containing carbamazepine as analytical internal standard, to terminate the reaction. Samples were centrifuged and the supernatant fractions analysed by LC-MS/MS. The instrument responses (i.e. chromatographic peak heights), normalized by internal standard response were referenced to the zero time-point samples (as 100%) in order to determine the percentage of compound remaining.
Ln plots of the % remaining, for each compound, were used to determine the half-life for the microsomal incubations.
Half-life values were calculated from the relationship. [drawing 2] where λ was the slope of the Ln concentration vs time curve.
The in vitro intrinsic clearance, CLint (µL/min/mg microsomal protein), was calculated using the following formula: [drawing 3]
When quantification was required, calibration standards for parent compound and metabolites were prepared in control hepatic microsomes and extracted and analysed as described for the study samples. Quantification of parent compound or metabolite was by extrapolation from the calibration line.

HDAC3-NcoR2 = target: T1, HDAC3-NcoR2 (Homo sapiens, UniProt O15379); test: Two-step fluorogenic deacetylase assay, recombinant HDAC3; format: biochemical; settings: standard 1 h pre-incubation conditions
T1 construct: purified recombinant human full length HDAC1 (cat# 50051), HDAC2 (cat# 50052), HDAC3-NcoR2 (cat# 50003); purchased BPS Bioscience (San Diego, CA) 50003
Protocol: As described, the length of compound-enzyme incubation has been reported to be critical for this class of HDAC inhibitors, where a unique time-dependent increase in affinity and subsequent potency has been observed [36]–[38]. […] To better mimic physiological conditions, our experiments were performed at 37°C as opposed to room temperature as reported in previous studies. […] To confirm that this shift was independent of the time of 4b in aqueous solution, 4b was applied immediately to the enzyme-substrate mix both after preparing in aqueous buffer, and 120 min after preparation.
To assess the biochemical and cellular potency of 4b and its conversion products/metabolites, we utilized the two-step fluorogenic assay which measures the HDAC-mediated catalytic conversion of synthetic acetylated lysine substrates. In brief, on deacetylation of the substrates by HDAC activity, a protease site is unmasked which allows subsequent trypsin-mediated cleavage and release of the highly flourescent AMC molecules in a subsequent step of the assay. The substrates used were Lys_Ac_AMC (Bachem I-1875) for HDAC3 and (Ac)Arg-Gly-Lys(Ac) (Bachem I-1925) for HDAC1 and HDAC2. The final substrates used for each enzyme assessment were carefully selected after assessing the catalytic turnover of each of these substrates against HDAC1, HDAC2 and HDAC3 respectively, and selecting the ones that performed best. To assess Class IIa enzyme activity (HDAC4, 5, 7, 9) and Class I HDAC8 activity, we used the alternative substrate Boc_Lys_TFA (Bachem I-1985), equivalent to substrate 4 of [42]. Class IIa HDACs have approximately 1000-fold less catalytic activity than Class 1 enzymes, and show only extremely low turnover of acetylated substrates due to a Tyr to His mutation in the active site. However, the relatively labile and sterically more demanding trifluoracetyl group is readily hydrolyzed by the catalytically less avid Class IIa enzymes, allowing measurement of Class IIa activity using the 2-step fluorogenic assay. Intriguingly the Boc_Lys_TFA substrate seems to show almost total selectivity for Class IIa enzymes over class I and Class IIb enzymes, with the exception of HDAC8 ([42], and internal data).
(§1) For evaluation of the class selectivity of the compounds, we assessed inhibition against purified recombinant human full length HDAC1 (cat# 50051), HDAC2 (cat# 50052), HDAC3-NcoR2 (cat# 50003) and HDAC8 (cat# 50008): as representative of Class I activity; catalytic domain HDAC4(αα 648–1057), HDAC5 (αα 657–1123; cat # 50005), HDAC7 (αα 518-end; cat # 50007) and HDAC9 (αα 604–1066; cat # 50009) activity: representing all Class IIa activity; and full length HDAC6 (cat#50006): representing Class IIb activity. With the exception of purified catalytic domain HDAC4, which was prepared for us by Emerald Biosciences (Seattle, WA), all HDAC enzymes were purchased from BPS Bioscience (San Diego, CA).
Unless otherwise stated in the text, assays were run in the following format in 384-well plates using automated liquid handling procedures. Briefly, frozen enzyme stock and compounds were diluted in assay buffer (50 mM Tris-HCl, 137 mM NaCl, 2.7 mM KCl, 1 mM MgCl2 at pH 8.0) and added to plates at concentrations sufficient to achieve a 16-point concentration-response curve from 50 µM to 1 nM at 1% DMSO final concentration, after addition of all reagents. Substrate diluted in assay buffer was then added and plates were incubated after brief shaking for 60 min at 37°C. Following incubation, a developer/stop-step was introduced to terminate the reaction and cleave the fluorescent substrate: either the addition of trypsin with 10 µM Compound 26 [44] for the Class IIa enzymes, or trypsin with 5 µM Trichostatin A (TSA) for the Class I/IIb enzymes. Plates were briefly shaken and then returned to the incubator for a further 60 min, followed by measurement of fluorescence per well (Ex 355 nm, Em 460 nm) on a Perkin Elmer EnVision. […]

Plasma stability = format: in vitro ADME, mouse; settings: mouse plasma
Protocol: Incubations of test compound (5 µM initial concentration, n = 2) were carried out with pooled mouse plasma or BSA (45 mg/mL in 0.1 M phosphate buffered saline). The incubations were performed at 37°C. Samples (50 µL) were obtained from the incubation at 0, 10, 30, 120, 240, 360 and 1440 min, and added to 150 µL of acetonitrile containing carbamazepine as analytical internal standard to terminate the reaction. Samples were centrifuged and the supernatant fractions analysed by LC-MS/MS.
For half-life determinations, the instrument responses (peak areas) normalized for internal standard response, were referenced to the zero time-point samples (as 100%) in order to determine the percentage of compound remaining. Ln plots of the % remaining, for each compound, were used to determine the half-life for the plasma incubations. Half-life values were calculated from the relationship:-. [drawing 1] Where λ was the slope of the natural logarithmic (Ln) concentration vs time curve.
When quantification was required, calibration standards for parent compound and metabolites were prepared in control plasma and extracted and analysed as described for the study samples. Quantification of parent compound or metabolite was by extrapolation from the calibration line.

HDACs = test: Biochemical HDAC assays (whole panel); parameters: species or system human; settings: up to 50 µM
Source text: To assess the biochemical and cellular potency of 4b and its conversion products/metabolites, we utilized the two-step fluorogenic assay which measures the HDAC-mediated catalytic conversion of synthetic acetylated lysine substrates. In brief, on deacetylation of the substrates by HDAC activity, a protease site is unmasked which allows subsequent trypsin-mediated cleavage and release of the highly flourescent AMC molecules in a subsequent step of the assay. The substrates used were Lys_Ac_AMC (Bachem I-1875) for HDAC3 and (Ac)Arg-Gly-Lys(Ac) (Bachem I-1925) for HDAC1 and HDAC2. […] However, the relatively labile and sterically more demanding trifluoracetyl group is readily hydrolyzed by the catalytically less avid Class IIa enzymes, allowing measurement of Class IIa activity using the 2-step fluorogenic assay. […]
as §1, with “With the exception of purified catalytic domain HDAC4, which was prepared for us by Emerald Biosciences (Seattle, WA), all HDAC enzymes were purchased from BPS Bioscience (San Diego, CA).” left out

FXN = tested on: FXN; parameters: method as in PMID 16921367; settings: at the concentration tested; cited from earlier work
[6] = cyclodextrin suspension targeted at 1 mg/ml, with heating

T1 sequence (O15379 whole entry): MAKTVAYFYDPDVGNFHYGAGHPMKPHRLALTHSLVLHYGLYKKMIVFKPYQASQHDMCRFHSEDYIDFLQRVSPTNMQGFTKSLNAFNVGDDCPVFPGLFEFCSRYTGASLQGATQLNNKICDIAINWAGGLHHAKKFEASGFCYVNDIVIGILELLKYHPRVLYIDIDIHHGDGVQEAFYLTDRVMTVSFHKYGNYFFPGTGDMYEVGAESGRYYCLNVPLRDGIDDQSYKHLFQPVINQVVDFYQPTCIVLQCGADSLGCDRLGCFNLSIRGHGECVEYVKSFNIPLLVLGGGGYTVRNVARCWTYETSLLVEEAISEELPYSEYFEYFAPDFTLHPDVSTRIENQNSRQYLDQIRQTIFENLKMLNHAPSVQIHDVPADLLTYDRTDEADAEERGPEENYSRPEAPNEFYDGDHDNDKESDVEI
T1 sequence (Q9Y618 395-489 partner limits assumed): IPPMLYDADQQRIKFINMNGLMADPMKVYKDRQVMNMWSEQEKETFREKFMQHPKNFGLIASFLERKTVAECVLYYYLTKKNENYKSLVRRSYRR

- day 7 value as % of value at day 1 ([1]; 1 mg/ml in DMSO): 59%
- decrease in parent (4b) concentration, day 7 compared to day 1 ([1]; cyclodextrin suspension, dark, gentle shaking, room temperature): 28%
- cyclisation to benzimidazole product in solution ([1]; eg. aqueous acetonitrile, ambient temperature, more rapidly when heated): cyclised slowly
- 4b solubilised (after filtration), day 1 [2, 6]: 0.27 mg/mL
- total 4b measured in suspension, day 1 [2, 6]: 0.75 mg/mL
- solubility in DMSO ([2]; prepared at 1 mg/ml): soluble
- solubility in water ([2]; salt forms): < 1000 µg/mL
- 4b dissolved (filtrate of suspension) [3]: 0.3 mg/mL
Compound: Cc1ccc(NC(=O)CCCCCC(=O)Nc2ccccc2N)cc1.O=C(O)C(F)(F)F [4b. TFA]

- share of the metabolism of parent accounted for by metabolite [5]: 42%
- IC50 (HDAC3-NcoR2): 26 µM
- share of the metabolism of parent accounted for by metabolite (Plasma stability; parent 4b): 78%
Compound: Nc1ccccc1NC(=O)CCCCCC(=O)O [Compound M1]
- activity in the Class I cellular HDAC (Boc_Lys_Ac) assay [4]: totally inactive; also recorded: neither inhibits HDACs

- share of the metabolism of parent accounted for by metabolite (Plasma stability; parent C1): 80%
Compound: O=C(O)CCCCCc1nc2ccccc2[nH]1 [Compound M3]
- activity in the Class I cellular HDAC (Boc_Lys_Ac) assay [4]: inactive
- activity in the biochemical HDAC assays (HDACs): inactive

Compound: BML-210 [reference compound]
- effect on FXN mRNA (FXN): increase FXN mRNA without cytotoxicity
